{"source": "patent US5942527A", "about": "“Hydrazones, hydrazines, semicarbazones and thiosemicarbazones derived from pyridyl ketones as anticonvulsant drugs and excitatory amino acid antagonists” (K & K Biosciences, Inc., priority 1997, dated 1999)", "key": {"[1]": {"tested_on": "maximal electroshock seizures", "experiment": "Maximal electroshock seizure (MES) test, rat, p.o.", "format": "in vivo, rat (Sprague-Dawley)", "conditions": "for Class in the MES Test: Table 7, titled MES Test, Rat; for responders at 30 mg/kg: several time points over a 4 hour period, read-out: Percent Protection at 30 mg/kg, in the MES test", "source_text": "The hydrazones, hydrazines and semicarbazones derived from pyridyl ketones and the resulting orally effective anticonvulsant compositions of this invention are useful in the treatment of convulsive disorders. […] A series of hydrazones, hydrazines and semicarbazones derived from pyridyl ketones of this invention has been evaluated for anticonvulsant activity by the intraperitoneal (i.p.) and by the oral (p.o.) route using two standard seizure models in the mouse and in the rat, the maximal electroshock seizure (MES) test and the subcutaneous pentylenetetrazole (Metrazole) seizure threshold (scMet) test. […] In addition, the compounds are evaluated in a new model, the threshold tonic extension (TTE) model. […] Thus active compounds that may be missed in the MES and […] the mouse, i.p., can be detected in the TTE test. The Maximal Electroshock Seizure Test (MES): Maximal electroshock seizures are elicited with a 60 Hz alternating current of 50 mA intensity in mice and about 150 mA intensity in rats (5-7 times that necessary to elicit minimal electroshock seizures), delivered for 0.2 sec via corneal electrodes. A drop of 0.9% saline is instilled in the eye prior to application of the electrodes in order to […]. Abolition of the hind limb tonic extension component of the seizure is defined as protection and results are expressed as number of animals protected/number of animals tested. […] This species will be the subject of the complete anticonvulsant quantification test evaluation as described above, but after oral (gavage) administration of the candidate compound."}, "[2]": {"tested_on": "maximal electroshock seizures", "experiment": "Maximal electroshock seizure (MES) test, mouse, i.p.", "format": "in vivo, mouse (male Carworth Farms #1)", "conditions": "mouse, 30, 100 and 300 mg/kg", "source_text": "The hydrazones, hydrazines and semicarbazones derived from pyridyl ketones and the resulting orally effective anticonvulsant compositions of this invention are useful in the treatment of convulsive disorders. […] A series of hydrazones, hydrazines and semicarbazones derived from pyridyl ketones of this invention has been evaluated for anticonvulsant activity by the intraperitoneal (i.p.) and by the oral (p.o.) route using two standard seizure models in the mouse and in the rat, the maximal electroshock seizure (MES) test and the subcutaneous pentylenetetrazole (Metrazole) seizure threshold (scMet) test. […] In addition, the compounds are evaluated in a new model, the threshold tonic extension (TTE) model. […] Thus active compounds that may be missed in the MES and […] the mouse, i.p., can be detected in the TTE test. Based on the screening results, the compounds are placed in one of three categories. […] Class II compounds show anticonvulsant activity at doses greater than 100 mg/kg or show activity at 100 mg/kg which is not reinforced by similar activity at 300 mg/kg. […] The Class I compounds are those which are most promising as anticonvulsants. […] In mice. i.p.: All compounds are emulsified in 0.5% methylcellulose. The solvent has been tested for anticonvulsant and toxic effects and found to introduce no significant bias into the testing of anticonvulsant activity. The compounds are administered intraperitoneally in a volume of 0.01 ml/gm to male Carworth Farms #1 mice weighing about 20 gm. All compounds are tested at least at three dose levels (30, 100 and 300 mg/kg) at 30 minutes and 4 hours after their administration. The Maximal Electroshock Seizure Test (MES): Maximal electroshock seizures are elicited with a 60 Hz alternating current of 50 mA intensity in mice and about 150 mA intensity in rats (5-7 times that necessary to elicit minimal electroshock seizures), delivered for 0.2 sec via corneal electrodes. A drop of 0.9% saline is instilled in the eye prior to application of the electrodes in order to […]. Abolition of the hind limb tonic extension component of the seizure is defined as protection and results are expressed as number of animals protected/number of animals tested. Anticonvulsant Quantification in Mice, i.p.: The ED50 values are determined in the MES, scMet and rotorod ataxia test."}, "TTE seizure": {"tested_on": "TTE seizure", "experiment": "Threshold tonic extension (TTE) test, mouse, i.p.", "format": "in vivo", "conditions": "mouse, 100 mg/kg", "source_text": "The hydrazones, hydrazines and semicarbazones derived from pyridyl ketones and the resulting orally effective anticonvulsant compositions of this invention are useful in the treatment of convulsive disorders. […] A series of hydrazones, hydrazines and semicarbazones derived from pyridyl ketones of this invention has been evaluated for anticonvulsant activity by the intraperitoneal (i.p.) and by the oral (p.o.) route using two standard seizure models in the mouse and in the rat, the maximal electroshock seizure (MES) test and the subcutaneous pentylenetetrazole (Metrazole) seizure threshold (scMet) test. […] In addition, the compounds are evaluated in a new model, the threshold tonic extension (TTE) model. […] Thus active compounds that may be missed in the MES and scMet tests in the mouse, i.p., can be detected in the TTE test.\nThe Threshold Tonic Extension (TTE) Test: The TTE test (Piredda et al., 1985) is a clinically nonselective, electroconvulsive seizure model that identifies compounds that raise seizure threshold as well as those that prevent seizure spread. […] The test is similar to the MES screen but uses a lower level of electrical current. The lower current makes the TTE test more sensitive but less discriminate than the MES screen. This ability makes the model attractive because it allows us to identify compounds that may be missed by our standard identification screen.\nTwenty mice are pretreated intraperitoneally with 100 mg/kg of the test substance. At several time intervals (1/4, 1/2, 1, 2, and 4 hours) post treatment with the test drug, four mice at each time point are challenged with 12.5 mA of electrical current for 0.2 seconds via corneal electrodes. This produces a TTE seizure in the animals (Woodbury and Davenport, 1952).\nFor each time interval results are expressed as a ratio of the number of animals protected over the number tested. […] The positives may represent compounds acting by novel mechanisms."}}, "note": "Counter-ions that a name gives are not always drawn."}
{"smiles": "CC(Nc1cccc(Cl)c1)c1cccnc1", "note": "(centres unmarked) [AAP 3-Pyridyl CH3 3-Cl, reference compound]", "values": [{"measurement": "Class in the MES Test", "setting": "[1]", "value": "II (show anticonvulsant activity at doses greater than 100 mg/kg or show activity at 100 mg/kg which is not reinforced by similar activity at 300 mg/kg)"}]}
{"smiles": "CC(Nc1ccc(Cl)cc1)c1cccnc1", "note": "(centres unmarked) [AAP 3-Pyridyl CH3 4-Cl, reference compound]", "values": [{"measurement": "protection at 50 mg/kg, MES Test", "setting": "[1]; rat, 50 mg/kg, Table 7", "value": "0-75%"}]}
{"smiles": "CC(Nc1ccc(Cl)c(Cl)c1)c1ccncc1", "note": "(centres unmarked) [AAP 4-Pyridyl CH3 3,4-diCl, reference compound]", "values": [{"measurement": "ED50", "setting": "[1]; po, rat, Table 7, read-out: Anticonvulsant Efficacy (ED50, mg/kg) in the MES Test", "value": 29.7, "unit": "mg/kg"}]}
{"smiles": "Clc1ccc(NC(c2ccccc2)c2ccncc2)cc1", "note": "(centres unmarked) [AAP 4-Pyridyl Ph 4-Cl, reference compound]", "values": [{"measurement": "Class in the MES Test", "setting": "[1]", "value": "III (Those failing to demonstrate anticonvulsant activity at doses up to 300 mg/kg are considered inactive)"}]}
{"smiles": "CC(=NNc1ccc(Cl)cc1)c1ccncc1", "note": "[Compound 2, Methyl 4-pyridyl ketone 4-chlorophenyl hydrazone]", "values": [{"measurement": "ASP Group Classification, MES Test", "setting": "[2]", "value": "I (They demonstrate anticonvulsant activity in either the MES test or the scMet test, or both at doses of 100 mg/kg or 30 mg/kg without signs of neurological deficit and thus have an estimated protective index of greater than 1)"}, {"measurement": "responders at 30 mg/kg", "setting": "[1]; po, rat", "value": "50 to 75", "unit": "%"}]}
{"smiles": "CC(=NNc1cccc(Cl)c1)c1cccnc1", "note": "[Compound 6, Methyl 3-pyridyl ketone 3-chlorophenylhydrazone]", "values": [{"measurement": "ASP Group Classification, MES Test", "setting": "[2]", "value": "I (They demonstrate anticonvulsant activity in either the MES test or the scMet test, or both at doses of 100 mg/kg or 30 mg/kg without signs of neurological deficit and thus have an estimated protective index of greater than 1)"}, {"measurement": "Class in the MES Test", "setting": "[1]", "value": "I (They demonstrate anticonvulsant activity in either the MES test or the scMet test, or both at doses of 100 mg/kg or 30 mg/kg without signs of neurological deficit and thus have an estimated protective index of greater than 1)"}]}
{"smiles": "CCC(=NNc1ccc(Cl)c(Cl)c1)c1ccncc1", "note": "[Compound 7, Ethyl 4-pyridyl ketone 3,4-dichlorophenylhydrazone]", "values": [{"measurement": "ASP Group Classification, MES Test", "setting": "[2]", "value": "III (Those failing to demonstrate anticonvulsant activity at doses up to 300 mg/kg are considered inactive)"}, {"measurement": "ASP Group Classification, TTE Test", "setting": "TTE seizure", "value": "I (They demonstrate anticonvulsant activity in either the MES test or the scMet test, or both at doses of 100 mg/kg or 30 mg/kg without signs of neurological deficit and thus have an estimated protective index of greater than 1)"}, {"measurement": "TTE Test (Percent Protection)", "setting": "TTE seizure", "value": 25, "unit": "%"}]}
{"smiles": "CCC(=NNc1ccc(Cl)cc1)c1ccncc1", "note": "[Compound 8, Ethyl 4-pyridyl ketone 4-chlorophenylhydrazone]", "values": [{"measurement": "ASP Group Classification, MES Test", "setting": "[2]", "value": "I (They demonstrate anticonvulsant activity in either the MES test or the scMet test, or both at doses of 100 mg/kg or 30 mg/kg without signs of neurological deficit and thus have an estimated protective index of greater than 1)"}]}
{"smiles": "Clc1ccc(NN=C(c2ccccc2)c2ccncc2)cc1Cl", "note": "[Compound 9, Phenyl 4-pyridyl ketone 3,4-dichlorophenylhydrazone]", "values": [{"measurement": "ASP Group Classification, MES Test", "setting": "[2]", "value": "III (Those failing to demonstrate anticonvulsant activity at doses up to 300 mg/kg are considered inactive)"}, {"measurement": "ASP Group Classification, TTE Test", "setting": "TTE seizure", "value": "I (They demonstrate anticonvulsant activity in either the MES test or the scMet test, or both at doses of 100 mg/kg or 30 mg/kg without signs of neurological deficit and thus have an estimated protective index of greater than 1)"}, {"measurement": "TTE Test (Percent Protection)", "setting": "TTE seizure", "value": 25, "unit": "%"}]}
{"smiles": "Clc1ccc(NN=C(c2ccccc2)c2ccncc2)cc1", "note": "[Compound 10, Phenyl 4-pyridyl ketone 4-chlorophenylhydrazone]", "values": [{"measurement": "ASP Group Classification, MES Test", "setting": "[2]", "value": "I (They demonstrate anticonvulsant activity in either the MES test or the scMet test, or both at doses of 100 mg/kg or 30 mg/kg without signs of neurological deficit and thus have an estimated protective index of greater than 1)"}, {"measurement": "Class in the MES Test", "setting": "[1]", "value": "I (They demonstrate anticonvulsant activity in either the MES test or the scMet test, or both at doses of 100 mg/kg or 30 mg/kg without signs of neurological deficit and thus have an estimated protective index of greater than 1)"}]}
{"smiles": "Clc1cccc(NN=C(c2ccccc2)c2ccncc2)c1", "note": "[Compound 11, Phenyl 4-pyridyl ketone 3-chlorophenylhydrazone]", "values": [{"measurement": "ASP Group Classification, MES Test", "setting": "[2]", "value": "III (Those failing to demonstrate anticonvulsant activity at doses up to 300 mg/kg are considered inactive)"}, {"measurement": "ASP Group Classification, TTE Test", "setting": "TTE seizure", "value": "I (They demonstrate anticonvulsant activity in either the MES test or the scMet test, or both at doses of 100 mg/kg or 30 mg/kg without signs of neurological deficit and thus have an estimated protective index of greater than 1)"}]}
{"smiles": "CC(NNc1ccc(Cl)c(Cl)c1)c1cccnc1", "note": "(centres unmarked) [Compound 12, 1-(3,4-dichlorophenyl)-2-[1-(3-pyridyl)]ethylhydrazine dihydrochloride]", "values": [{"measurement": "ASP Group Classification, MES Test", "setting": "[2]", "value": "I (They demonstrate anticonvulsant activity in either the MES test or the scMet test, or both at doses of 100 mg/kg or 30 mg/kg without signs of neurological deficit and thus have an estimated protective index of greater than 1)"}, {"measurement": "responders at 30 mg/kg", "setting": "[1]; po, rat", "value": "25 to 75", "unit": "%"}]}
{"smiles": "CC(=NNC(N)=O)c1ccncc1", "note": "[Compound 13, Methyl 4-pyridyl ketone semicarbazone]", "values": [{"measurement": "ASP Group Classification, MES Test", "setting": "[2]", "value": "I (They demonstrate anticonvulsant activity in either the MES test or the scMet test, or both at doses of 100 mg/kg or 30 mg/kg without signs of neurological deficit and thus have an estimated protective index of greater than 1)"}]}
{"smiles": "CC(=NNC(N)=O)c1cccnc1", "note": "[Compound 14, Methyl 3-pyridyl ketone semicarbazone]", "values": [{"measurement": "ASP Group Classification, MES Test", "setting": "[2]", "value": "II (show anticonvulsant activity at doses greater than 100 mg/kg or show activity at 100 mg/kg which is not reinforced by similar activity at 300 mg/kg)"}]}
